Test results taken from patent US4348410A, “Cyclohexane carboxylic acid derivatives” (Nippon Chemiphar Co., Ltd., priority 1979, dated 1982).
Structures can show the parent of a compound that is named as a salt. Values belong to the compound of their own block, whether it stands above or below them.

Key:
acetic acid ulcers = assay: Acetic acid ulcers; type: in vivo, Male Sprague-Dawley strain rats; details: for Ulcer Grade 1 (number of rats): ulcer area 0-10 mm^2; for Ulcer Grade 2 (number of rats): ulcer area 11-20 mm^2; for Ulcer Grade 3 (number of rats): ulcer area 21-30 mm^2; for Ulcer Grade 4 (number of rats): ulcer area 31-40 mm^2; for Ulcer Grade 5 (number of rats): ulcer area >40 mm^2
Procedure: Male Sprague-Dawley strain rats, weighing about 200 g were used. Under ether anesthesia 10% acetic acid solution (0.05 ml) was injected carefully between the serous membrane and the muscle near the pylorus, and the abdomen was closed. Thereafter, the animals were maintained under conditions and administered 1 ml/100 g of each test drug dissolved or suspended in 0.5% carboxymethylcellulose solution p.o. daily×10 starting from the next day of the operation. On the 11th day, the rats were sacrificed under ether anesthesia, and the stomachs were removed. The area of the ulcer was measured and graded into 5 degrees as an ulcer index according to the following method: […]

urokinase = urokinase (Homo sapiens, UniProt P00749); assay: Inhibitory effects on urokinase (hydrolysis of N-acetylglycyl lysine methyl ester); type: biochemical; details: for Inhibition (%) Urokinase: 37° C., 10 minutes, concentration not given; for inhibition at 100 µM: 0.1 mM, read-out: inhibited hydrolytic activity by urokinase
Procedure: The compounds of the formula (I) have excellent inhibitory effects on protease. The inhibitory effects were determined by the following methods: Inhibitory effects of the compounds on urokinase were determined according to the method described by A. J. Joeson et al (Throm. […]. 21, 259-272 (1969)). In particular, inhibitory effects of the compounds on hydrolysis of N-acetylglycyl lysine methyl ester by urokinase were determined (incubated at 37° C. for 10 minutes).

chymotrypsin = chymotrypsin (Bos taurus, UniProt P00766); assay: Inhibitory effects on chymotrypsin (hydrolysis of N-acetyl-L-tyrosine ethyl ester); type: biochemical; details: for Inhibition (%) Chymotrypsin: 37° C., 10 minutes, concentration not given
Procedure: The compounds of the formula (I) have excellent inhibitory effects on protease. The inhibitory effects were determined by the following methods: Inhibitory effects on the compounds of chymotrypsin were determined according to the method described by M. […] In particular, inhibitory effects of the compounds on hydrolysis of N-acetyl-L-tyrosine ethyl ester by chymotrypsin were examined (incubated at 37° C. for 10 minutes).

thrombin = thrombin (Bos taurus, UniProt P00735); assay: Inhibitory effects on thrombin (hydrolysis of p-tosylarginine methyl ester); type: biochemical; details: for Inhibition (%) Thrombin: 37° C., 10 minutes, concentration not given
Procedure: The compounds of the formula (I) have excellent inhibitory effects on protease. The inhibitory effects were determined by the following methods:
Inhibitory effects of the compounds on thrombin were determined according to the method described by M. Muramatsu et al (The Journal of Biochemistry, Volume 65 (1), 17 (1969)). In particular, inhibitory effects of the compounds on hydrolysis of p-tosylarginine methyl ester by thrombin were examined (incubated at 37° C. for 10 minutes).

trypsin = target: T1, trypsin (Bos taurus, UniProt P00760); assay: Inhibitory effects on trypsin (hydrolysis of p-tosylarginine methyl ester); type: biochemical; details: for Inhibition (%) Trypsin: 37° C., 10 minutes, concentration not given
T1 sequence (P00760 24-246): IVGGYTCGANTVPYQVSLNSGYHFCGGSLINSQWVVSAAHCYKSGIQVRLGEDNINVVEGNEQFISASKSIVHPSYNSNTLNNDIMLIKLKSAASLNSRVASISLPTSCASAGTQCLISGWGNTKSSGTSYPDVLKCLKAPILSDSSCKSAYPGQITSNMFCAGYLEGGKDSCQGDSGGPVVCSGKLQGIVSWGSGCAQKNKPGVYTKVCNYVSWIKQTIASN
Procedure: In particular, inhibitory effects of the compounds on hydrolysis of p-tosylarginine methyl ester by trypsin were examined (incubated at 37° C. for 10 minutes).

Shay ulcers = Shay ulcers (pylorus ligation); type: in vivo, Male Sprague-Dawley strain rats; details: for Ulcer Grade 0 (number of rats): 0=no lesion; for Ulcer Grade 1 (number of rats): 1=hemorrhagic suffusion; for Ulcer Grade 2 (number of rats): 2=1-5 small ulcers (<3 mm); for Ulcer Grade 3 (number of rats): 3=many small ulcers (more than 5) or 1 ulcer of marked size; for Ulcer Grade 4 (number of rats): 4=many ulcers of marked size; for Ulcer Grade 5 (number of rats): 5=perforated ulcer
Procedure: The rats were sacrificed 18 hours later by an overdose of ether and the stomach removed. The stomach was incised along the greater curvature and the surface area of each lesion in forestomach was measured by the naked eye. […] 4=many ulcers of marked size 5=perforated ulcer The test drugs were given intraperitoneally, immediately after pylorus ligation.

gastric secretion = assay: Influence to the gastric secretion (pylorus ligation); type: in vivo, Male Sprague-Dawley strain rats; details: 12.5 mg/kg i.p.
Procedure: Male Sprague-Dawley strain rats, weighing 160-180 g were deprived of food but allowed free access to water for 20 hours prior to experiment. […] The test drug was given intraperitoneally immediately after pylorus ligation. The rats were sacrificed 3, 6 and 12 hours later and the stomachs removed. The gastric juice was collected and analyzed for volume. Then the gastric juice was centrifuged at 1300 g for 10 minutes at room temperature to give the supernatant. The total acidity and peptic activity of the supernatant were determined. Total acidity was determined by titrating with 0.01 N NaOH. […] Total acidity is shown as the titration volume (ml) and peptic activity is shown as the corresponding weight (mg) to crystal pepsin.

SMILES: COc1cc(C=O)ccc1OC(=O)[C@H]1CC[C@H](CNC(=N)N)CC1 [Compound 2]
Ulcer Grade 1 (number of rats) (acetic acid ulcers; 125 mg/kg p.o. daily×10): 9
Ulcer Grade 2 (number of rats) (acetic acid ulcers; 125 mg/kg p.o. daily×10): 1
Ulcer Grade 3 (number of rats) (acetic acid ulcers; 125 mg/kg p.o. daily×10): 2
Ulcer Grade 4 (number of rats) (acetic acid ulcers; 125 mg/kg p.o. daily×10): 2
Ulcer Grade 5 (number of rats) (acetic acid ulcers; 125 mg/kg p.o. daily×10): 1
Ulcer Grade 1 (number of rats) (acetic acid ulcers; 250 mg/kg p.o. daily×10): 14
Ulcer Grade 2 (number of rats) (acetic acid ulcers; 250 mg/kg p.o. daily×10): 0
Ulcer Grade 3 (number of rats) (acetic acid ulcers; 250 mg/kg p.o. daily×10): 3
Ulcer Grade 4 (number of rats) (acetic acid ulcers; 250 mg/kg p.o. daily×10): 1
Ulcer Grade 5 (number of rats) (acetic acid ulcers; 250 mg/kg p.o. daily×10): 0
Ulcer Grade 1 (number of rats) (acetic acid ulcers; 500 mg/kg p.o. daily×10): 12
Ulcer Grade 2 (number of rats) (acetic acid ulcers; 500 mg/kg p.o. daily×10): 3
Ulcer Grade 3 (number of rats) (acetic acid ulcers; 500 mg/kg p.o. daily×10): 2
Ulcer Grade 4 (number of rats) (acetic acid ulcers; 500 mg/kg p.o. daily×10): 0
Ulcer Grade 5 (number of rats) (acetic acid ulcers; 500 mg/kg p.o. daily×10): 1
Inhibition (%) Urokinase (urokinase): 72%
Inhibition (%) Chymotrypsin (chymotrypsin): 100%
Inhibition (%) Thrombin (thrombin): 51%
Inhibition (%) Trypsin (trypsin): 61%

Inhibition (%) Urokinase (urokinase): 84%
Inhibition (%) Chymotrypsin (chymotrypsin): 28%
Inhibition (%) Thrombin (thrombin): 35%
Inhibition (%) Trypsin (trypsin): 22%
SMILES: CCOc1ccccc1OC(=O)[C@H]1CC[C@H](CNC(=N)N)CC1 [Compound 4]

Inhibition (%) Urokinase (urokinase): 35%
Inhibition (%) Chymotrypsin (chymotrypsin): 90%
Inhibition (%) Thrombin (thrombin): 34%
Inhibition (%) Trypsin (trypsin): 38%
SMILES: N=C(N)NC[C@H]1CC[C@H](C(=O)Oc2ccccc2C(=O)Oc2ccccc2)CC1 [Compound 5]

Inhibition (%) Urokinase (urokinase): 50%
Inhibition (%) Chymotrypsin (chymotrypsin): 70%
Inhibition (%) Thrombin (thrombin): 39%
Inhibition (%) Trypsin (trypsin): 25%
SMILES: CCOC(=O)c1ccc(OC(=O)[C@H]2CC[C@H](CNC(=N)N)CC2)cc1 [Compound 6]

Inhibition (%) Urokinase (urokinase): 67%
Inhibition (%) Chymotrypsin (chymotrypsin): 70%
Inhibition (%) Thrombin (thrombin): 32%
Inhibition (%) Trypsin (trypsin): 23%
SMILES: Cl.N=C(N)NC[C@H]1CC[C@H](C(=O)Oc2cccnc2)CC1 [Compound 7, 3pyridyl trans4-guanidinomethylcyclohexanecarboxylate hydrochloride]

SMILES: CCOC(=O)CCc1ccc(OC(=O)[C@H]2CC[C@H](CNC(=N)N)CC2)cc1 [Compound 8]
Ulcer Grade 1 (number of rats) (acetic acid ulcers; 300 mg/kg p.o. daily×10): 4
Ulcer Grade 2 (number of rats) (acetic acid ulcers; 300 mg/kg p.o. daily×10): 3
Ulcer Grade 3 (number of rats) (acetic acid ulcers; 300 mg/kg p.o. daily×10): 1
Ulcer Grade 4 (number of rats) (acetic acid ulcers; 300 mg/kg p.o. daily×10): 0
Ulcer Grade 5 (number of rats) (acetic acid ulcers; 300 mg/kg p.o. daily×10): 0
Inhibition (%) Urokinase (urokinase): 55%
Inhibition (%) Chymotrypsin (chymotrypsin): 20%
Inhibition (%) Thrombin (thrombin): 43%
Inhibition (%) Trypsin (trypsin): 51%
Ulcer Grade 0 (number of rats) (Shay ulcers; 200 mg/kg i.p.): 4
Ulcer Grade 1 (number of rats) (Shay ulcers; 200 mg/kg i.p.): 2
Ulcer Grade 2 (number of rats) (Shay ulcers; 200 mg/kg i.p.): 2
Ulcer Grade 3 (number of rats) (Shay ulcers; 200 mg/kg i.p.): 1
Ulcer Grade 4 (number of rats) (Shay ulcers; 200 mg/kg i.p.): 1
Ulcer Grade 5 (number of rats) (Shay ulcers; 200 mg/kg i.p.): 0

SMILES: CCOC(=O)c1ccccc1OC(=O)[C@H]1CC[C@H](CNC(=N)N)CC1 [Compound 9]
Ulcer Grade 1 (number of rats) (acetic acid ulcers; 125 mg/kg p.o. daily×10): 11
Ulcer Grade 2 (number of rats) (acetic acid ulcers; 125 mg/kg p.o. daily×10): 3
Ulcer Grade 3 (number of rats) (acetic acid ulcers; 125 mg/kg p.o. daily×10): 1
Ulcer Grade 4 (number of rats) (acetic acid ulcers; 125 mg/kg p.o. daily×10): 1
Ulcer Grade 5 (number of rats) (acetic acid ulcers; 125 mg/kg p.o. daily×10): 1
Ulcer Grade 1 (number of rats) (acetic acid ulcers; 250 mg/kg p.o. daily×10): 11
Ulcer Grade 2 (number of rats) (acetic acid ulcers; 250 mg/kg p.o. daily×10): 2
Ulcer Grade 3 (number of rats) (acetic acid ulcers; 250 mg/kg p.o. daily×10): 1
Ulcer Grade 4 (number of rats) (acetic acid ulcers; 250 mg/kg p.o. daily×10): 0
Ulcer Grade 5 (number of rats) (acetic acid ulcers; 250 mg/kg p.o. daily×10): 0
Ulcer Grade 1 (number of rats) (acetic acid ulcers; 500 mg/kg p.o. daily×10): 12
Ulcer Grade 2 (number of rats) (acetic acid ulcers; 500 mg/kg p.o. daily×10): 2
Ulcer Grade 3 (number of rats) (acetic acid ulcers; 500 mg/kg p.o. daily×10): 1
Ulcer Grade 4 (number of rats) (acetic acid ulcers; 500 mg/kg p.o. daily×10): 0
Ulcer Grade 5 (number of rats) (acetic acid ulcers; 500 mg/kg p.o. daily×10): 0
Inhibition (%) Urokinase (urokinase): 50%
Inhibition (%) Chymotrypsin (chymotrypsin): 60%
Inhibition (%) Thrombin (thrombin): 29%
Inhibition (%) Trypsin (trypsin): 28%

SMILES: N=C(N)NC[C@H]1CC[C@H](C(=O)Oc2ccccc2C(=O)O)CC1 [Compound 10]
Ulcer Grade 1 (number of rats) (acetic acid ulcers; 300 mg/kg p.o. daily×10): 4
Ulcer Grade 2 (number of rats) (acetic acid ulcers; 300 mg/kg p.o. daily×10): 2
Ulcer Grade 3 (number of rats) (acetic acid ulcers; 300 mg/kg p.o. daily×10): 1
Ulcer Grade 4 (number of rats) (acetic acid ulcers; 300 mg/kg p.o. daily×10): 0
Ulcer Grade 5 (number of rats) (acetic acid ulcers; 300 mg/kg p.o. daily×10): 2
Ulcer Grade 1 (number of rats) (acetic acid ulcers; 500 mg/kg p.o. daily×10): 4
Ulcer Grade 2 (number of rats) (acetic acid ulcers; 500 mg/kg p.o. daily×10): 3
Ulcer Grade 3 (number of rats) (acetic acid ulcers; 500 mg/kg p.o. daily×10): 1
Ulcer Grade 4 (number of rats) (acetic acid ulcers; 500 mg/kg p.o. daily×10): 0
Ulcer Grade 5 (number of rats) (acetic acid ulcers; 500 mg/kg p.o. daily×10): 0

SMILES: CN1[C@@H]2CC[C@H]1C[C@@H](OC(=O)C(CO)c1ccccc1)C2 (stereo partly shown) [Compound B, atropine sulfate, reference compound]
Titratable Pepsin Output (gastric secretion; 3 hours): 3.3 ± 0.9 mg
Titratable Pepsin Output % change (gastric secretion; 3 hours): 43.1%
Titratable Pepsin Output (gastric secretion; 6 hours): 9.7 ± 1.6 mg
Titratable Pepsin Output % change (gastric secretion; 6 hours): 55.3%
Titratable Pepsin Output (gastric secretion; 12 hours): 34.2 ± 1.4 mg
Titratable Pepsin Output % change (gastric secretion; 12 hours): 41.0%
Ulcer Grade 0 (number of rats) (Shay ulcers; 12.5 mg/kg i.p.): 2
Ulcer Grade 1 (number of rats) (Shay ulcers; 12.5 mg/kg i.p.): 1
Ulcer Grade 2 (number of rats) (Shay ulcers; 12.5 mg/kg i.p.): 0
Ulcer Grade 3 (number of rats) (Shay ulcers; 12.5 mg/kg i.p.): 1
Ulcer Grade 4 (number of rats) (Shay ulcers; 12.5 mg/kg i.p.): 3
Ulcer Grade 5 (number of rats) (Shay ulcers; 12.5 mg/kg i.p.): 3

inhibition at 100 µM (thrombin; 0.1 mM, read-out: inhibited hydrolytic activity by thrombin): ~50%
inhibition at 100 µM (trypsin; 0.1 mM, read-out: inhibited hydrolytic activity by trypsin): ~50%
SMILES: Cc1c(C)c2c(c(C)c1OC(=O)[C@H]1CC[C@H](CNC(=N)N)CC1)CCC(C)(CCCC(C)CCCC(C)CCCC(C)C)O2 (stereo partly shown) [Example 1]

inhibition at 100 µM (urokinase): 56%
SMILES: N=C(N)NC[C@H]1CC[C@H](C(=O)Oc2ccccc2C=O)CC1 [Example 19]

inhibition at 100 µM (urokinase): 50%
SMILES: COc1ccccc1OC(=O)[C@H]1CC[C@H](CNC(=N)N)CC1 [Example 20]

inhibition at 100 µM (urokinase): 52%
SMILES: COc1ccc(OC(=O)[C@H]2CC[C@H](CNC(=N)N)CC2)cc1 [Example 21]

inhibition at 50 µM (chymotrypsin; 0.05 mM, read-out: inhibited hydrolytic activity by chymotrypsin): 50%
SMILES: CC(=O)c1ccccc1OC(=O)[C@H]1CC[C@H](CNC(=N)N)CC1 [Example 23, 2'-Acetylphenyl trans-4-guanidomethycylohexanecarboxylate hydrochloride]
